Laboratory results: patent publication US20210278408A1, “METHODS OF TREATMENT OF CANCER WITH SUBSTITUTED PYRROLE AND PYRAZOLE COMPOUNDS AND DIAGNOSIS OF CANCERS SUSCEPTIBLE TO TREATMENT WITH SUBSTITUTED PYRROLE AND PYRAZOLE COMPOUNDS” (Bantam Pharmaceutical, LLC, priority 2018, published 2021)
Entries after “also recorded” stand apart in the source; their conditions may differ.

What was measured:
[1] = tested on: BJAB (malignant human B-cell-line); test: BJAB cell proliferation; format: cell-based; conditions: BJAB (malignant human B-cell-line) cell proliferation, EC50; read-out: BJAB
[2] = tested on: SU-DHL-10 xenograft; test: Human xenograft model, diffuse large B-cell lymphoma line SU-DHL-10; format: in vivo, SCID beige mice; conditions: once daily oral gavage, p<0.01 for 10 and 30 mpk doses
Experimental: FIG. 10 is a set of graphs of in vivo treatment results for Athymic Nude mice engrafted with the DLBCL line SU-DHL-10 (left panel) or the CRC line HCT-116 (right panel). After 14 days, groups of mice (n=10 per group) were randomized by tumor volume and treated with Compound B19 (left panel) or Compound A197 (right panel). All animals dosed p.o. q.d. (orally once per day). Tumor burden was measured over 21 days. Compound B19 efficacy was monitored for 21 days following last dose to determine relapse. All data plotted as the mean±SEM, n=10 mice per group.
The positive results of the PK studies led to an evaluation of Compound A197 and Compound B19 in murine xenograft models of human tumors. Compound A197 was tested in a human tumor xenograft model using KRAS mutated colorectal cancer cell line HCT-116. Athymic nude mice (HSD:Athymic Nude-Foxn1 nu, Envigo) were inoculated subcutaneously with 5×10^6 HCT-116 cells in the right rear flank. The animals wethen staged and randomized by tumor size to achieve dose groups of 10 animals each with an average tumor volume of 150 mm^3. Tumor bearing mice were dosed once daily by oral gavage with a vehicle (5% NMP, 15% PEG400, 10% Solutol, and 70% D5W) or with A197 dissolved in vehicle to provide a dose concentration of 10 ml/kg. Compound B19 was tested in a human xenograft model using the human diffuse large B-cell lymphoma line SU-DHL-10 (ATCC). […]

[3] = tested on: DNA Damage; test: High content imaging screen: DNA damage (Histone H2A.x phosphorylation); format: cell-based; conditions: Histtone H2A.x phosphorylation as marker
Experimental: (§1) Mechanism of Action Screens A series of broad high content imaging, transcriptomic, metabolomic, and CRISPR KO screens were performed to link Compound A197 activity to a probable method of action. The outcome of these screens included two notable observations.

[4] = tested on: Cytoskeletal; test: High content imaging screen: cytoskeletal; format: cell-based; conditions: actin or microtubule localization or structure
Experimental: as §1

[5] = tested on: Gene Expression; test: Transcriptomic screen; format: cell-based
Experimental: as §1

[6] = tested on: NHLF, BJAB, SU-DHL-2, and HCT-116 cells; test: Total cellular GSH levels (GSH-Glo), all lines; format: cell-based, human; conditions: tumor lines HCT-116, BJAB
Experimental: Total cellular GSH levels are reduced in tumor lines treated with Compound A197 The therapeutic compounds will cause a dose dependent reduction in total cellular glutathione in HCT-116, BJAB, SU-DHL-2, but not in NHLF cells. The maximum reduction of cellular GSH is in the range of 43-69%. The reduction In GSH levels appears independent of apoptosis.
(§2) NHLF, BJAB, SU-DHL-2, and HCT-116 cells were treated with Compound A197 for 4 hours prior to lysate harvest. Total cellular glutathione (GSH) levels were determined using a luminescent endpoint (GSH-Glo, Promega). Cell proliferation was determined using Cell-Titre Glo following 72 hours of compound treatment. All data shown is mean±SD of three biological replicates.

[7] = tested on: NHLF; test: Total cellular GSH levels (GSH-Glo): NHLF; format: cell-based, human; conditions: 4 hrs
Experimental: as §2

[8] = tested on: BJAB; test: Total cellular GSH levels (GSH-Glo): BJAB; format: cell-based, human; conditions: 4 hrs, mean ± std. dev.
Experimental: as §2

[9] = tested on: HCT-116; test: Total cellular GSH levels (GSH-Glo): HCT-116; format: cell-based, human; conditions: 4 hrs, mean ± std. dev.
Experimental: as §2

[10] = tested on: BJAB; test: Cell proliferation, Cell-Titre Glo, 72 hours: BJAB; format: cell-based; conditions: Homo sapiens, mean ± std. dev.
Experimental: as §2

[11] = tested on: NHLF; test: Apoptosis, 72 hr: NHLF; format: cell-based, human
[12] = tested on: BJAB; test: Apoptosis, 72 hr: BJAB; format: cell-based, human
[13] = tested on: SU-DHL-2; test: Apoptosis, 72 hr: SU-DHL-2; format: cell-based, human
[14] = tested on: HCT-116; test: Apoptosis, 72 hr: HCT-116; format: cell-based, human
[15] = Homo sapiens, read-out: GSH IC50 (Abs)

SMILES	EC50 [1]	regression in DLBCL tumors [2]	Outcome: DNA Damage [3]	Outcome: Cytoskeletal [4]	Outcome: Gene Expression [5]	maximum reduction of cellular GSH [6]	GSH % Max reduction [7]	GSH % Max reduction [8]	IC50 [8, 15]	GSH % Max reduction [9]	IC50 [9, 15]	IC50 [10]	Apoptosis, 72 hr [11]	Apoptosis, 72 hr [12]	Apoptosis, 72 hr [13]	Apoptosis, 72 hr [14]
COC(=O)c1c(-c2cccc(F)c2)c(C)nn1-c1nc(C2=CCC(C(F)(F)F)CC2)c(SC(C)C)s1 (single isomer, unassigned) [Compound B19, methyl 4-(3-fluorophenyl)-1-(5-(isopropylthio)-4-(4-(trifluoromethyl)cyclohex-1-en-1-yl)thiazol-2-yl)-3-methyl-1H-pyrazole-5-carboxylate]	< 1000 nM	dose-dependent and durable regression in DLBCL tumors by day 21														
Cc1nn(-c2nc(-c3ccc(C(F)(F)F)cc3)c(SC(C)C)s2)c(C(=O)O)c1-c1cccc(F)c1 [Compound A197, 4-(3-fluorophenyl)-1-(5-(isopropylthio)-4-(4-(trifluoromethyl)phenyl)thiazol-2-yl)-3-methyl-1H-pyrazole-5-carboxylic acid]			No evidence of DNA damage using Histtone H2A.x	No obvious changes in actin or microtubule localization	induced the ATF4 pathway; also recorded: Induction of ATF pathway; no effect on cell cycle gene	43-69%	0%	69 ± 11%	208 ± 80 nM	43 ± 9%	360 ± 720 nM	295 ± 110 nM	No	Yes	Yes	No
